Patent publication EP1137632B1, “THIOUREA INHIBITORS OF HERPES VIRUSES” (Wyeth, priority 1998, dated 2000)
Converted amounts (≈) assume the structure as drawn. Read-outs that look alike come from different tables or passages of the source.

Assays:
[1] = tested on: HCMV recombinant mutant virus; experiment: microbe, parasite or virus in culture; assay type: cell-based, human cytomegalovirus; conditions: Human betaherpesvirus 5, read-out: IC50 (ug/ml) HCMV
Method in brief: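 Human foreskin fibroblasts were infected with a recombinant HCMV carrying a beta-glucuronidase gene under a viral promoter, in the presence of compound. At 96 h post-infection, lysate beta-glucuronidase activity was read colorimetrically or fluorometrically as a replication marker. IC50 came from the compound dose range.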

[2] = tested on: HSV-1; experiment: HSV antiviral (ELISA) assay in Vero cells; assay type: cell-based, herpes simplex virus type 1; conditions: read-out: IC50 (ug/ml) HSV
Method in brief: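 Vero cells in DMEM/2% FBS treated with compound 30 min before HSV-1 infection (MOI 0.006), ~24 h at 37 °C. Viral glycoprotein D measured by cell ELISA with β-galactosidase-linked secondary and fluorogenic methylumbelliferyl galactoside (ex 365/em 450 nm); IC50 versus no-compound fluorescence.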

[3] = tested on: VZV strain Ellen; experiment: VZV antiviral (ELISA) assay in human foreskin fibroblast cells; assay type: cell-based, varicella-zoster virus; conditions: read-out: IC50 (ug/ml) VZV
Method in brief: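 HFF cells infected with VZV Ellen (MOI <0.1) overnight, then plated at 3.5x10^4 cells/well with compound in DMEM + 2% FBS for three days at 37°C, 5% CO2. Viral glycoprotein II quantified by ELISA with β-galactosidase-linked secondary and 4-methylumbelliferyl-galactoside fluorescence (365/450 nm); IC50 versus no-compound fluorescence.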

[4] = Human alphaherpesvirus 1, HSV-1 in Vero cells
[5] = Human alphaherpesvirus 3, VZV strain Ellen in HFF cells

Row | SMILES | IC50 [1] [µg/mL] | IC50 [2, 4] [µg/mL] | IC50 [3, 5] [µg/mL] | IC50 ([2]; Human alphaherpesvirus 1, Vero) [µg/mL] | IC50 ([3]; Human alphaherpesvirus 3, HFF) [µg/mL]
1 | CCOc1cc(NC(=S)NC(C)c2ccc(F)cc2)ccc1NC(=O)c1ccccc1F (stereo not drawn) [Example 1060, N-(2-Ethoxy-4-{3-[1-(4-fluoro-phenyl)-ethyl]-thioureido}-phenyl)-2-fluoro-benzamide] | > 10 | > 10 | 0.26 (≈ 0.571 µM) |  | 
2 | CCOc1cc(NC(=S)NC(C)c2ccc(C#N)cc2)ccc1NC(=O)c1ccccc1F (stereo not drawn) [Example 1061, N-(4-{3-[1-(4-Cyano-phenyl)-ethyl]-thioureido}-2-ethoxy-phenyl)-2-fluoro-benzamide] | 7.6 (≈ 16.4 µM) | > 10 | 0.64 (≈ 1.38 µM) |  | 
3 | CC(NC(=S)Nc1ccc(NC(=O)c2ccccc2F)c(OCC#N)c1)c1ccc(F)cc1 (stereo not drawn) [Example 1062, 2-Fluoro-N-[4-{3-[1-(4-fluoro-phenyl)-ethyl]-thioureido}-2-(2-nitrilo-ethoxy)-phenyl]-benzamide] | 6 (≈ 12.9 µM) | > 10 | 0.33 (≈ 0.707 µM) |  | 
4 | CC(NC(=S)Nc1ccc(NC(=O)c2ccccc2F)c(OCC#N)c1)c1ccc(C#N)cc1 (stereo not drawn) [Example 1063, N-[4-{3-[1-(4-Cyano-phenyl)-ethyl]-thioureido}-2-(2-nitrilo-ethoxy)-phenyl]-2-fluoro-benzamide] | 3.6 (≈ 7.6 µM) | > 10 | 0.64 (≈ 1.35 µM) |  | 
5 | COc1cc(NC(=S)NC(C)c2ccc(F)cc2)ccc1NC(=O)c1ccccc1F (stereo not drawn) [Example 1064, 2-Fluoro-N-(4-{3-[1-(4-fluoro-phenyl)-ethyl]-thioureido}-2-methoxy-phenyl)-benzamide] | 4.5 (≈ 10.2 µM) | 3.9 (≈ 8.83 µM) | 0.04 (≈ 0.0906 µM) |  | 
6 | CC(NC(=S)Nc1ccc(NC(=O)c2ccccc2F)c(-c2ccccc2)c1)c1ccc(F)cc1 (stereo not drawn) [Example 1065, 2-Fluoro-N-(5-{3-[1-(4-fluoro-phenyl)-ethyl)-thioureido}-biphenyl-2-yl)-benzamide] | 8.1 (≈ 16.6 µM) |  |  | 4.9 (≈ 10 µM) | 0.33 (≈ 0.677 µM)
7 | CC(NC(=S)Nc1ccc(NC(=O)c2nccc3ccccc23)c(C(F)(F)F)c1)c1ccc(F)cc1 (stereo not drawn) [Example 1066, Isoquinoline-1-carboxylic acid (4-{3-[1-(4-fluoro-phenyl)-ethyl]-thioureido}-2-trifluoromethyl-phenyl)-amide] | 1.8 (≈ 3.51 µM) | 1.9 (≈ 3.71 µM) | 0.02 (≈ 0.039 µM) |  | 
8 | CC(NC(=S)Nc1ccc(NC(=O)c2cc3ccccc3o2)c(C(F)(F)F)c1)c1ccc(F)cc1 (stereo not drawn) [Example 1067, Benzofuran-2-carboxylic acid (4-{3-[1-(4-fluoro-phenyl)-ethyl]-thioureido}-2-trifluoromethyl-phenyl)-amide] | 3.3 (≈ 6.58 µM) | 3.8 (≈ 7.58 µM) | 0.26 (≈ 0.518 µM) |  | 
9 | CC(NC(=S)Nc1ccc(NC(=O)c2cc3ccccc3cn2)c(C(F)(F)F)c1)c1ccc(F)cc1 (stereo not drawn) [Example 1068, Isoquinoline-3-carboxylic acid (4-{3-[1-(4-fluoro-phenyl)-ethyl]-thioureido}-2-trifluoromethyl-phenyl)-amide] | > 10 | > 10 | 0.04 (≈ 0.078 µM) |  | 
10 | CC(NC(=S)Nc1ccc(NC(=O)c2nccc3ccccc23)c(C#N)c1)c1ccc(F)cc1 (stereo not drawn) [Example 1069, Isoquinoline-1-carboxylic acid (2-cyano-4-{3-[1-(4-fluoro-phenyl)-ethyl]-thioureido}-phenyl)-amide] | 4 (≈ 8.52 µM) | > 10 | 0.019 (≈ 0.0405 µM) |  | 
11 | CC(NC(=S)Nc1ccc(NC(=O)c2cc3ccccc3o2)c(C#N)c1)c1ccc(F)cc1 (stereo not drawn) [Example 1070, Benzofuran-2-carboxylic acid (2-cyano-4-{3-[1-(4-fluoro-phenyl)-ethyl]-thioureido}-phenyl)-amide] | 2 (≈ 4.36 µM) | 4.1 (≈ 8.94 µM) | 0.2 (≈ 0.436 µM) |  | 
12 | CC(NC(=S)Nc1ccc(NC(=O)c2cc3ccccc3cn2)c(C#N)c1)c1ccc(F)cc1 (stereo not drawn) [Example 1071, Isoquinoline-3-carboxylic acid (2-cyano-4-{3-[1-(4-fluoro-phenyl)-ethyl]-thioureido}-phenyl)-amide] | > 10 | 9 (≈ 19.2 µM) | 0.03 (≈ 0.0639 µM) |  | 
13 | Cc1cc(NC(=S)NC(C)c2ccc(F)cc2)ccc1NC(=O)c1nccc2ccccc12 (stereo not drawn) [Example 1072, Isoquinoline-1-carboxylic acid (4-{3-[1-(4-fluoro-phenyl)-ethyl]-thioureido}-2-methyl-phenyl)-amide] | > 10 | > 10 | 0.027 (≈ 0.0589 µM) |  | 
14 | Cc1cc(NC(=S)NC(C)c2ccc(F)cc2)ccc1NC(=O)c1cc2ccccc2o1 (stereo not drawn) [Example 1073, Benzofuran-2-carboxylic acid (4-{3-[1-(4-fluoro-phenyl)-ethyl]-thioureido}-2-methyl-phenyl)-amide] | 6.3 (≈ 14.1 µM) | 4.6 (≈ 10.3 µM) | 0.47 (≈ 1.05 µM) |  | 
15 | Cc1cc(NC(=S)NC(C)c2ccc(F)cc2)ccc1NC(=O)c1cc2ccccc2cn1 (stereo not drawn) [Example 1074, Isoquinoline-3-carboxylic acid (4-{3-[1-(4-fluoro-phenyl)-ethyl]-thioureido}-2-methyl-phenyl)-amide] | 4 (≈ 8.72 µM) | 5.8 (≈ 12.6 µM) | 0.07 (≈ 0.153 µM) |  | 
